Experimental data as given in patent publication US20150105252A1, “SUBSTITUTED PYRAZOLES AS HERBICIDES” (E I DU PONT DE NEMOURS AND COMPANY, priority 2013, published 2015).

Legend:
barnyardgrass [1] = experiment: Test A preemergence; format: in vivo, Echinochloa crus-galli; conditions: preemergence
Method in brief: (§1)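 Visual injury rating, 0–100 (0 no effect, 100 complete control), vs untreated controls ~10 days after treatment in greenhouse. Pre: directed soil spray on seeded loam/sand. Post: 2–10 cm plants, 1–2 leaf stage. Formulation: non-phytotoxic solvent mix + surfactant.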

barnyardgrass [2] = experiment: Test A postemergence; format: in vivo, Echinochloa crus-galli
Method in brief: as §1

pigweed = experiment: Test A postemergence; format: in vivo, Amaranthus retroflexus
Method in brief: as §1

corn = experiment: Test A postemergence; format: in vivo, Zea mays
Method in brief: as §1

rice = experiment: Test B flood; format: in vivo, Oryza sativa; conditions: 250 g ai/ha, visual rating on 0 to 100 scale (0 no effect, 100 complete control), 13 to 15 days
Method in brief: (§2)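 Plants were grown to the 2-leaf stage, then pots were flooded to 3 cm above the soil and compounds were applied directly into the paddy water. Water depth was held for the whole test; after 13 to 15 days in a greenhouse, injury was visually rated against untreated controls (0 = no effect, 100 = complete control).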

ducksalad = experiment: Test B flood; format: in vivo, Heteranthera limosa; conditions: 250 g ai/ha, visual rating on 0 to 100 scale (0 no effect, 100 complete control), 13 to 15 days
Method in brief: as §2

blackgrass = experiment: Test C preemergence; format: in vivo, Alopecurus myosuroides; conditions: for Plant response rating (scale of 0 to 100), Blackgrass: Preemergence, 250 g ai/ha
Method in brief: (§3)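 Seeds were sown in a loam soil–sand blend and sprayed preemergence with compounds formulated in a non-phytotoxic solvent mixture containing surfactant. Postemergence plants, grown in peat/vermiculite medium to 2–18 cm (1- to 4-leaf stage), received the same formulation. After 13 to 15 days in a greenhouse, injury was rated visually against controls (0 = no effect, 100 = complete control).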

foxtail, giant = experiment: Test C preemergence; format: in vivo, Setaria faberii; conditions: for Plant response rating (scale of 0 to 100), Foxtail, Giant: Preemergence, 250 g ai/ha
Method in brief: as §3

ragweed [3] = experiment: Test C preemergence; format: in vivo, Ambrosia elation; conditions: for Plant response rating (scale of 0 to 100), Ragweed: Preemergence, 250 g ai/ha
Method in brief: as §3

crabgrass, large = experiment: Test C postemergence; format: in vivo, Digitaria sanguinalis; conditions: for Plant response rating (scale of 0 to 100 where 0 is no effect and 100 is complete control), Crabgrass, Large: Postemergence, 31 g ai/ha, visually evaluated after 13 to 15 days; for Crabgrass, Large plant response rating / Plant response rating, Crabgrass, Large: postemergence; for Crabgrass, Large plant response rating: 62 g ai/ha, scale 0 to 100
Method in brief: as §3

ragweed [4] = experiment: Test C postemergence; format: in vivo, Ambrosia elation; conditions: for Plant response rating (scale of 0 to 100 where 0 is no effect and 100 is complete control), Ragweed: Postemergence, 31 g ai/ha, visually evaluated after 13 to 15 days; for Ragweed plant response rating / Plant response rating, Ragweed: postemergence; for Ragweed plant response rating: 62 g ai/ha, scale 0 to 100
Method in brief: as §3

barnyardgrass [5] = experiment: Test C postemergence; format: in vivo, Echinochloa crus-galli; conditions: for Plant response rating (scale of 0 to 100 where 0 is no effect and 100 is complete control), Barnyardgrass: Postemergence, 31 g ai/ha, visually evaluated after 13 to 15 days; for Barnyardgrass plant response rating / Plant response rating, Barnyardgrass: postemergence; for Barnyardgrass plant response rating: 62 g ai/ha, scale 0 to 100
Method in brief: as §3

oat, wild = experiment: Test C postemergence; format: in vivo, Avena fatua; conditions: for Plant response rating (scale of 0 to 100 where 0 is no effect and 100 is complete control), Oat, Wild: Postemergence, 31 g ai/ha, visually evaluated after 13 to 15 days; for Oat, Wild plant response rating / Plant response rating, Oat, Wild: postemergence; for Oat, Wild plant response rating: 62 g ai/ha, scale 0 to 100
Method in brief: as §3

[6] = 125 g ai/ha, visual injury, 0 to 100 scale, approx. 10 days
[7] = 500 g ai/ha, visual injury after approx. 10 days, 0 to 100 scale (0 no effect, 100 complete control)
[8] = Postemergence, 500 g ai/ha, visual rating after approx. 10 days, 0 to 100 scale (0 no effect, 100 complete control)
[9] = postemergence, 125 g ai/ha, about 10 days, visual rating on 0 to 100 scale (0 no effect, 100 complete control)
[10] = preemergence, 31 g ai/ha, visual rating, scale 0 to 100 (0 no effect, 100 complete control), 13 to 15 days
[11] = preemergence, 62 g ai/ha, 13 to 15 days, scale 0 to 100, 0 = no effect, 100 = complete control
[12] = preemergence, 125 g ai/ha, scale 0 to 100, 0 is no effect, 100 is complete control
[13] = 250 g ai/ha, scale 0 to 100 (0 no effect, 100 complete control)
[14] = 125 g ai/ha, scale 0 to 100, 0 no effect, 100 complete control
[15] = preemergence, 62 g ai/ha, scale 0 to 100 (0 no effect, 100 complete control), 13 to 15 days

Row | SMILES | Barnyardgrass plant response rating (barnyardgrass [1]; [6]) | Barnyardgrass plant response rating (barnyardgrass [1]; [7]) | Barnyardgrass plant response rating (barnyardgrass [2]; [8]) | Barnyardgrass plant response rating (barnyardgrass [2]; [9]) | Pigweed plant response rating (pigweed; [8]) | Pigweed plant response rating (pigweed; [9]) | Corn plant response rating (corn; [8]) | Corn plant response rating (corn; [9]) | Plant response rating, Rice (rice) | Plant response rating, Ducksalad (ducksalad) | Plant response rating (scale of 0 to 100), Blackgrass (blackgrass) | Blackgrass plant response rating (blackgrass; [10]) | Blackgrass plant response rating (blackgrass; [12]) | Plant response rating (scale of 0 to 100), Foxtail, Giant (foxtail, giant) | Foxtail, Giant plant response rating (foxtail, giant; [10]) | Foxtail, Giant plant response rating (foxtail, giant; [12]) | Plant response rating (scale of 0 to 100), Ragweed (ragweed [3]) | Ragweed plant response rating (ragweed [3]; [10]) | Ragweed plant response rating (ragweed [3]; [12]) | Plant response rating (scale of 0 to 100 where 0 is no effect and 100 is complete control), Crabgrass, Large (crabgrass, large) | other results
1 | CCOc1cc(C(=O)NCC(F)(F)F)nn1Cc1ccnc(C(F)(F)F)c1 [Compound 104] | 100 | 100 | 90 | 90 | 100 | 100 | 100 | 90 | 40 | 0 | 90 | 85 | 90 | 100 | 100 | 100 | 100 | 98 | 100 | 5 | Plant response rating, Blackgrass (blackgrass; [11]): 90; Plant response rating, Foxtail, Giant (foxtail, giant; [11]): 100; Plant response rating, Ragweed (ragweed [3]; [11]): 100; Crabgrass, Large plant response rating (crabgrass, large): 70; Plant response rating, Crabgrass, Large (crabgrass, large; [13]): 95; Plant response rating, Crabgrass, Large (crabgrass, large; [14]): 75; Plant response rating (scale of 0 to 100 where 0 is no effect and 100 is complete control), Ragweed (ragweed [4]): 85; Ragweed plant response rating (ragweed [4]): 85; Plant response rating, Ragweed (ragweed [4]; [13]): 95; Plant response rating, Ragweed (ragweed [4]; [14]): 95; Plant response rating (scale of 0 to 100 where 0 is no effect and 100 is complete control), Barnyardgrass (barnyardgrass [5]): 5; Barnyardgrass plant response rating (barnyardgrass [5]): 5; Plant response rating, Barnyardgrass (barnyardgrass [5]; [13]): 90; Plant response rating, Barnyardgrass (barnyardgrass [5]; [14]): 45; Plant response rating (scale of 0 to 100 where 0 is no effect and 100 is complete control), Oat, Wild (oat, wild): 5; Oat, Wild plant response rating (oat, wild): 15; Plant response rating, Oat, Wild (oat, wild; [13]): 85; Plant response rating, Oat, Wild (oat, wild; [14]): 35
2 | CCCc1cc(C(=O)NCC(F)(F)F)nn1Cc1ccnc(C(F)(F)F)c1 [Compound 105] | 100 | 100 | 100 | 90 | 100 | 100 | 100 | 80 | 90 | 95 | 90 | 90 | 90 | 100 | 100 | 100 | 98 | 98 | 98 | 35 | Blackgrass plant response rating (blackgrass; [15]): 90; Foxtail, Giant plant response rating (foxtail, giant; [15]): 100; Ragweed plant response rating (ragweed [3]; [15]): 98; Crabgrass, Large plant response rating (crabgrass, large): 45; Plant response rating, Crabgrass, Large (crabgrass, large; [13]): 95; Plant response rating, Crabgrass, Large (crabgrass, large; [14]): 90; Plant response rating (scale of 0 to 100 where 0 is no effect and 100 is complete control), Ragweed (ragweed [4]): 30; Ragweed plant response rating (ragweed [4]): 40; Plant response rating, Ragweed (ragweed [4]; [13]): 80; Plant response rating, Ragweed (ragweed [4]; [14]): 65; Plant response rating (scale of 0 to 100 where 0 is no effect and 100 is complete control), Barnyardgrass (barnyardgrass [5]): 10; Barnyardgrass plant response rating (barnyardgrass [5]): 20; Plant response rating, Barnyardgrass (barnyardgrass [5]; [13]): 85; Plant response rating, Barnyardgrass (barnyardgrass [5]; [14]): 45; Plant response rating (scale of 0 to 100 where 0 is no effect and 100 is complete control), Oat, Wild (oat, wild): 25; Oat, Wild plant response rating (oat, wild): 30; Plant response rating, Oat, Wild (oat, wild; [13]): 60; Plant response rating, Oat, Wild (oat, wild; [14]): 45
